Test results: patent US6737383B1, “Herbicidal oxadiazolidines” (priority 1999, dated 2004)

Legend:
bedstraw = test: Test B pre/postemergence bedstraw; type: in vivo, Galium aparine; conditions: for Bedstraw plant response rating: Postemergence
Outline: (§1)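 Response is a visual 0-to-10 score relative to untreated plants, where 0 means no effect and 10 means complete control, taken twelve to sixteen days after application. Treatments went onto soil at planting and onto foliage of 1- to 4-leaf plants, using a surfactant-containing non-phytotoxic solvent.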

blackgrass = test: Test B pre/postemergence blackgrass; type: in vivo, Alopecurus myosuroides
Outline: as §1

surinam grass = test: Test B pre/postemergence surinam grass; type: in vivo, Brachiaria decumbens
Outline: as §1

cocklebur = test: Test B pre/postemergence cocklebur; type: in vivo, Xanthium strumarium
Outline: as §1

corn = test: Test B pre/postemergence corn; type: in vivo, Zea mays
Outline: as §1

morningglory = test: Test B pre/postemergence morningglory; type: in vivo, Ipomoea hederacea
Outline: as §1

pigweed = test: Test B pre/postemergence pigweed; type: in vivo, Amaranthus retroflexus
Outline: as §1

rape = test: Test B pre/postemergence rape; type: in vivo, Brassica napus
Outline: as §1

soybean = test: Test B pre/postemergence soybean; type: in vivo, Glycine max
Outline: as §1

sugar beet = test: Test B pre/postemergence sugar beet; type: in vivo, Beta vulgaris
Outline: as §1

velvetleaf = test: Test B pre/postemergence velvetleaf; type: in vivo, Abutilon theophrasti
Outline: as §1

wild oat = test: Test B pre/postemergence wild oat; type: in vivo, Avena fatua
Outline: as §1

purple nutsedge = test: Test B pre/postemergence purple nutsedge; type: in vivo, Cyperus rotundus
Outline: as §1

rice = test: Test B flood test rice; type: in vivo, Oryza sativa
Outline: (§2)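 Flood test on plants grown to the 2-leaf stage; treated plants kept in greenhouse twelve to sixteen days, then visually rated against controls on a 0 (no effect) to 10 (complete control) scale.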

smallflower flatsedge = test: Test B flood test smallflower flatsedge; type: in vivo, Cyperus difformis
Outline: as §2

bamyardgrass = test: Test B flood test barnyardgrass; type: in vivo, Echinochloa crus-galli
Outline: as §2

[1] = Preemergence, Rate 62 g/ha, scale of 0 to 10 where 0 is no effect and 10 is complete control
[2] = Postemergence, Rate 125 g/ha, scale 0 to 10, 0 is no effect, 10 is complete control
[3] = Postemergence, Rate 250 g/ha, scale 0 to 10
[4] = Postemergence, Rate 500 g/ha, scale of 0 to 10 where 0 is no effect and 10 is complete control
[5] = Preemergence, Rate 125 g/ha, scale 0 to 10, 0 is no effect, 10 is complete control
[6] = Preemergence, Rate 250 g/ha, scale 0 to 10, 0 is no effect, 10 is complete control
[7] = Preemergence, Rate 500 g/ha, scale 0 to 10, 0 is no effect, 10 is complete control
[8] = Rate 62 g/ha, Postemergence, scale 0 to 10, 0 no effect, 10 complete control
[9] = Rate 62 g/ha, flood test species, Pre-emergence, visual evaluation after twelve to sixteen days
[10] = Rate 125 g/ha, under heading Pre-emergence, flood test species, visual evaluation after twelve to sixteen days
[11] = Rate 250 g/ha, Pre-emergence (flood test species), scale 0 to 10, 0 is no effect, 10 is complete control
[12] = Rate 500 g/ha, Pre-emergence, flood test species, scale 0 to 10 (0 no effect, 10 complete control)

Compound: CC(C)N(C(=O)n1oc(=O)n(Cc2cnc(Cl)s2)c1=O)c1ccc(F)cc1 [Compound 482]
- Bedstraw plant response rating (bedstraw; Rate 125 g/ha, scale 0 to 10, 0 is no effect, 10 is complete control): 0
- Bedstraw plant response rating (bedstraw; Rate 250 g/ha, scale 0 to 10): 0
- Plant response rating, Bedstraw (bedstraw; [1]): 0
- Bedstraw plant response rating (bedstraw; Rate 62 g/ha, scale 0 to 10, 0 no effect, 10 complete control): 0
- Blackgrass plant response rating (blackgrass; [2]): 0
- Blackgrass plant response rating (blackgrass; [3]): 0
- Blackgrass plant response rating (blackgrass; [4]): 0
- Plant response rating, Blackgrass (blackgrass; [1]): 0
- Blackgrass plant response rating (blackgrass; [5]): 0
- Blackgrass plant response rating (blackgrass; [6]): 0
- Blackgrass plant response rating (blackgrass; [7]): 4
- Blackgrass plant response rating (blackgrass; [8]): 0
- B. signalgrass plant response rating (surinam grass; [2]): 0
- B. signalgrass plant response rating (surinam grass; Postemergence, Rate 250 g/ha, scale 0 to 10, 0 no effect, 10 complete control): 0
- B. signalgrass plant response rating (surinam grass; [4]): 0
- Plant response rating, B. signalgrass (surinam grass; [1]): 0
- B. signalgrass plant response rating (surinam grass; [5]): 0
- B. signalgrass plant response rating (surinam grass; [6]): 0
- B. signalgrass plant response rating (surinam grass; [7]): 0
- B. signalgrass plant response rating (surinam grass; [8]): 0
- Cocklebur plant response rating (cocklebur; [2]): 0
- Cocklebur plant response rating (cocklebur; [3]): 0
- Cocklebur plant response rating (cocklebur; [4]): 0
- Plant response rating, Cocklebur (cocklebur; [1]): 0
- Cocklebur plant response rating (cocklebur; [5]): 0
- Cocklebur plant response rating (cocklebur; [6]): 0
- Cocklebur plant response rating (cocklebur; [7]): 0
- Cocklebur plant response rating (cocklebur; [8]): 0
- Corn plant response rating (corn; [2]): 0
- Corn plant response rating (corn; [3]): 0
- Corn plant response rating (corn; [4]): 0
- Plant response rating, Corn (corn; [1]): 0
- Corn plant response rating (corn; [5]): 0
- Corn plant response rating (corn; [6]): 0
- Corn plant response rating (corn; [7]): 0
- Corn plant response rating (corn; [8]): 0
- Morningglory plant response rating (morningglory; [2]): 7
- Morningglory plant response rating (morningglory; [3]): 8
- Plant response rating, Morningglory (morningglory; [1]): 0
- Morningglory plant response rating (morningglory; [5]): 0
- Morningglory plant response rating (morningglory; [6]): 0
- Morningglory plant response rating (morningglory; [7]): 0
- Morningglory plant response rating (morningglory; [8]): 5
- Redroot pigweed plant response rating (pigweed; [2]): 0
- Redroot pigweed plant response rating (pigweed; [3]): 2
- Plant response rating, Redroot pigweed (pigweed; [1]): 0
- Redroot pigweed plant response rating (pigweed; [5]): 0
- Redroot pigweed plant response rating (pigweed; [6]): 0
- Redroot pigweed plant response rating (pigweed; [7]): 0
- Redroot pigweed plant response rating (pigweed; [8]): 0
- Rape plant response rating (rape; [2]): 0
- Rape plant response rating (rape; [3]): 0
- Plant response rating, Rape (rape; [1]): 0
- Rape plant response rating (rape; [5]): 0
- Rape plant response rating (rape; [6]): 0
- Rape plant response rating (rape; [7]): 0
- Rape plant response rating (rape; [8]): 0
- Soybean plant response rating (soybean; [2]): 1
- Soybean plant response rating (soybean; [3]): 1
- Plant response rating, Soybean (soybean; [1]): 0
- Soybean plant response rating (soybean; [5]): 0
- Soybean plant response rating (soybean; [6]): 0
- Soybean plant response rating (soybean; [7]): 0
- Soybean plant response rating (soybean; [8]): 1
- Sugarbeets plant response rating (sugar beet; [2]): 0
- Sugarbeets plant response rating (sugar beet; [3]): 0
- Plant response rating, Sugarbeets (sugar beet; [1]): 0
- Sugarbeets plant response rating (sugar beet; [5]): 0
- Sugarbeets plant response rating (sugar beet; [6]): 0
- Sugarbeets plant response rating (sugar beet; [7]): 0
- Sugarbeets plant response rating (sugar beet; [8]): 0
- Velvetleaf plant response rating (velvetleaf; [2]): 0
- Velvetleaf plant response rating (velvetleaf; [3]): 0
- Plant response rating, Velvetleaf (velvetleaf; [1]): 0
- Velvetleaf plant response rating (velvetleaf; [5]): 0
- Velvetleaf plant response rating (velvetleaf; [6]): 0
- Velvetleaf plant response rating (velvetleaf; [7]): 2
- Velvetleaf plant response rating (velvetleaf; [8]): 0
- Wild oats plant response rating (wild oat; [2]): 0
- Wild oats plant response rating (wild oat; [3]): 0
- Plant response rating, Wild oats (wild oat; [1]): 0
- Wild oats plant response rating (wild oat; [5]): 0
- Wild oats plant response rating (wild oat; [6]): 0
- Wild oats plant response rating (wild oat; [7]): 3
- Wild oats plant response rating (wild oat; [8]): 0
- Nutsedge plant response rating (purple nutsedge; [2]): 0
- Nutsedge plant response rating (purple nutsedge; [3]): 0
- Plant response rating, Nutsedge (purple nutsedge; [1]): 0
- Nutsedge plant response rating (purple nutsedge; [5]): 0
- Nutsedge plant response rating (purple nutsedge; [6]): 0
- Nutsedge plant response rating (purple nutsedge; [7]): 0
- Nutsedge plant response rating (purple nutsedge; [8]): 0
- Plant response rating, Rice (0 to 10 scale, 0 is no effect, 10 is complete control) (rice; [9]): 0
- Rice plant response rating (0 to 10 scale, 0 is no effect, 10 is complete control) (rice; [10]): 0
- Rice plant response rating (rice; [11]): 0
- Rice plant response rating (rice; [12]): 0
- Plant response rating, S. Flatsedge (0 to 10 scale, 0 is no effect, 10 is complete control) (smallflower flatsedge; [9]): 0
- S. Flatsedge plant response rating (0 to 10 scale, 0 is no effect, 10 is complete control) (smallflower flatsedge; [10]): 0
- S. Flatsedge plant response rating (smallflower flatsedge; [11]): 0
- S. Flatsedge plant response rating (smallflower flatsedge; [12]): 0
- Plant response rating, Barnyardgrass (0 to 10 scale, 0 is no effect, 10 is complete control) (bamyardgrass; [9]): 0
- Barnyardgrass plant response rating (0 to 10 scale, 0 is no effect, 10 is complete control) (bamyardgrass; [10]): 0
- Barnyardgrass plant response rating (bamyardgrass; [11]): 0
- Barnyardgrass plant response rating (bamyardgrass; [12]): 0
